Data published in EP0231671B1, “Gonatriene derivatives and process for preparing them” (MITSUBISHI KASEI CORPORATION, priority 1985, dated 1987).

Tested on: female rats
Assay: Anti-gonadotropic activity: ovary weight after 14 days of oral administration, test group compared with control group
Assay type: in vivo
Set-up: key: -: no effective; +: effective; ++: very effective
Settings: suspended in 10 % ethanol-containing cotton seed oil, ovary weight vs control group
Method: Each compound obtained in Examples and suspended in a 10 % ethanol-containing cotton seed oil was orally administrated to female rats in a dose of 0.1, 1 or 10 mg/kg for 14 days. While, for the control group, only the cotton seed oil was orally administrated for the same period.
After the completion of the administration, the ovary of each rat was weighted. From the comparison of the weight in the test group with that in the control group, the anti-gonadotropic activity of the gonatriene compound of this invention was evaluated.

| Compound | anti-gonadotropic activity (0.1 mg/kg for 14 days) | anti-gonadotropic activity (10 mg/kg for 14 days) | anti-gonadotropic activity (1 mg/kg for 14 days) |
| --- | --- | --- | --- |
| C[C@]12C=CC3=C4CCC(=O)C=C4CC[C@H]3[C@@H]1CC[C@@]2(O)CCl [Example 1, 17α-chloromethyl-17β-hydroxy-13β-methyl-gona-4.9.11-triene-3-one] | - | ++ |  |
| C[C@]12C=CC3=C4CCC(=O)C=C4CC[C@H]3[C@@H]1CC[C@@]2(O)CC#N [Example 2, 17α-cyanomethyl-17β-hydroxy-13β-methyl-gona-4,9,11-triene-3-one] | - | ++ | + |
| CC[C@]12C=CC3=C4CCC(=O)C=C4CC[C@H]3[C@@H]1CC[C@@]2(O)CC#N [Example 3, 17α-cyanomethyl-17β-hydroxy-13β-ethyl-gona-4,9,11-triene-3-one] | - | ++ | + |
| CC[C@]12C=CC3=C4CCC(=O)C=C4CC[C@H]3[C@@H]1CC[C@@]2(O)CCl [Example 4, 17α-chloromethyl-17β-hydroxy-13β-ethyl-gona-4,9,11-triene-3-one] | - | ++ | + |
| CC[C@]12C=CC3=C4CCC(=O)C=C4CC[C@H]3[C@@H]1CC[C@@]2(O)COC [Example 6, 17α-methoxymethyl-17β-hydroxy-13β-ethyl-gona-4,9,11-triene-3-one] |  | ++ |  |
| CC[C@]12C=CC3=C4CCC(=O)C=C4CC[C@H]3[C@@H]1CC[C@@]2(O)CSC [Example 7, 17α-methylthiomethyl-17β-hydroxy-13β-ethyl-aona-4.9.11-triene-3-one] | - | ++ |  |
| CC[C@]12C=CC3=C4CCC(=O)C=C4CC[C@H]3[C@@H]1CC[C@@]2(O)CSC#N [Example 9, 17α-thiocyanatemethyl-17β-hydroxy-13βethyl-gona-4,9,11-triene-3-one] |  | ++ | ++ |
